# Measurements as given in patent US10485772B2, “Compositions for modulating cancer stem cells and uses therefor” (University of Canberra, priority 2014, dated 2019).
# Tested on: CD44^high/CD24^low CSC-like subpopulation of PMA-stimulated MCF-7 cells (MCF-IM model)
# Experiment: FACS analysis of CD44high/CD24low CSC-like subpopulation in MCF-IM model
# Type: cell-based, human
# Conditions: MCF-IM model; for CD44 high CD24 low-CSC-like subpopulation by FACS: bisindolylmaleimide-I 100 nm and 1 μM prior to PMA for 60 hrs
# Procedure: Cells from each well/flask were harvested by means of trypsin treatment followed by two washes with PBS. Washed cells then re-suspended in an antibody cocktail consisting anti-CD44-APC, anti-CD24-PE antibodies (details in Table 5) and Hoechst 33258 dye (final dilution of 1:1000) (Invitrogen, Carlsbad, Calif.) in 1% FCS-PBS solution. Cells re-suspended in antibody cocktail were incubated for 20 minutes at 4° C. Cells were next washed twice with PBS and re-suspended in 1% FCS-PBS solution (volume based on cell number) and kept on ice until analyzed by FACS. Forward scatter (FSC) and side scatter parameters were selected with FITC fluorochrome excited by 488 nm argonion laser, PE fluorochrome excited by 488 nm and Hoechst fluorochrome excited by 350 nm helium-cadmium UV laser.
# Flow Cytometry data was produced using either BD FACS LSR Flow Cytometer (Becton Dickinson Biosciences) or BD FACS Aria™ II Flow Cytometer (Becton Dickinson Biosciences) and analyzed using the data acquisition software CellQuest Pro (Becton Dickinson Biosciences) and FlowJo (Tree Star Inc., Ashland, Oreg.) software at the MCRF facility, JCSMR, ANU, Canberra, Australia. Single colour controls were used to set compensation parameters. Isotype controls were used for all corresponding primary antibodies in each experiment.
# The FACS gating strategy used in this thesis is adopted and modified from the pioneer breast cancer stem cell publications (Al-Hajj et al., 2003) which sorted cells based on the CD44^high and CD24^low expression. […] To confirm that anti-CD44-APC and anti-CD24-PE antibodies were specific, isotype control antibodies were used. The isotype (negative controls) used for anti-CD24-PE was PE Mouse-Anti-human IgG2aK and for anti-CD44-APC was APC-Mouse-Anti-human IgG2bK. First, all the cells were stained with Hoechst 33258 to monitor cell viability. In addition cells were stained with varying concentrations of either APC or PE isotypes controls.
# The adherent human mammary adenocarcinoma MCF-7 and MDA-MB-231 cells were cultured in low glucose DMEM (Gibco) and both supplemented with 10% FCS, 2 mM L-glutamine and 0.1% PSN antibiotics. Cells were stimulated with 0.65 ng/ml of phorbol 12-myristate 13-acetate (PMA) (Sigma-Aldrich) or 20 ng/ml of TGF-β (R&D systems) for the times indicated. For Bisindolylmaleimide-I (Calbiochem) or PKC-θ peptide inhibitor (Calbiochem) studies, cells were pre-treated with 1 μM or 30 μM of inhibitor respectively for 1 h prior to stimulation in MCF-7 cells. In case of MDA-MB-231, cells were treated with 4 μM or 30 μM Bisindolylmaleimide-I or PKC-θ peptide inhibitor respectively.
# To separate CSC from non-CSC (NCSC), florescence activated cell sorting (FACS) was performed on single-cell suspensions that were stained with anti-CD44-APC (559942, BD Biosciences) and anti-CD24-PE antibodies (555428, BD Biosciences) along with Hoechst 33258 to monitor cell viability. As used throughout this work, CSC are defined by minority CD44^high/CD24^low, whereas NCSC are defined by rest of the cell populations.
# The adherent human mammary adenocarcinoma cell lines MCF-7 were cultured in low glucose DMEM (Gibco) and supplemented with 10% FCS, 2 mM L-glutamine, and 0.1% PSN antibiotics. Cells were stimulated with 0.65 ng/ml of phorbol 12-myristate 13-acetate (PMA) (Sigma-Aldrich) for 60 hours. FACS was performed on single-cell suspensions stained with anti-CD44-APC (559942, BD Biosciences) and anti-CD24-PE antibodies (555428, BD Biosciences), along with Hoechst 33258 (561908, BD Biosciences) to monitor cell viability as previously detailed (Zafar et al., Chromatinized PKC-theta directly regulates inducible genes in epithelial to mesenchymal transition and breast cancer stem cells. Molecular and Cellular Biology, 2014, 34:16 2961-2980). […]
SMILES,CD44 high CD24 low-CSC-like subpopulation (CSC formation) by FACS (Go6976 1 μM prior to PMA for 60 hrs),CD44 high CD24 low-CSC-like subpopulation by FACS,CD44 high CD24 low-CSC-like subpopulation by FACS (listed as Broad spectrum PKC pathway inhibitor)
Cn1c2ccccc2c2c3c(c4c5ccccc5n(CCC#N)c4c21)CNC3=O [Go6976],did not prevent PMA-induced EMT-like morphological changes or CSC formation,–,–
CN(C)CCCn1cc(C2=C(c3c[nH]c4ccccc34)C(=O)NC2=O)c2ccccc21 [bisindolylmaleimide-I],–,only very high concentration of bisindolylmaleimide-I but not Go 6976 inhibits CD44 high CD24 low-CSC-like subpopulation,inhibition of EMT and CSC formation
